Patent US20090291938A1 (TAKEDA PHARMACEUTICAL COMPANY LIMITED, priority 2007, published 2009)

system: HT29 human colorectal adenocarcinoma cell line; test: cell proliferation assay (Cell Titer-Glo luminescent cell viability assay); format: cell-based; details: HT-29, 72 h, read-out: pIC50 (converted)
Experimental: The cell culture and proliferation assay may be carried out as follows: the HT29 human colorectal adenocarcinoma cell line (ATCC, USA) was maintained in Dulbecco's Modified Eagle's Medium (Invitrogen, USA) supplemented with 10% fetal bovine serum (JRH, USA). The cell proliferation assay was carried out with the Cell Titer-Glo luminescent cell viability assay (Promega, USA) according to the manufacture's instruction after the 72 hr treatment of the cells in the presence of the compounds. The cell viability was shown as a percentage of DMSO treated cells.

Structure (SMILES)	IC50
COc1cc(C(=O)NC2CCN(C)CC2)ccc1Nc1ncc2c(n1)N(C1CCCCC1)CC(C)(C)C(=O)N2C [Compound 109, 4-(9-cyclohexyl-5,7,7-trimethyl-6-oxo-6,7,8,9-tetrahydro-5H-pyrimido[4,5-b][1,4]diazepin-2-ylamino)-3-methoxy-N-(1-methylpiperidin-4-yl)benzamide]	1 to 2.51 nM

same assay, conditions: HT-29, cell proliferative assay, HT29 cells, 72 hr treatment, values given as ranges, read-out: pIC50 (converted)

Structure (SMILES)	IC50
COc1cc(C(=O)NCC2CCN(C)CC2)ccc1Nc1ncc2c(n1)N(C1CCCC1)CC(C)(C)C(=O)N2C [Compound 88]	> 10 nM
COc1cc(C(=O)NCCCN(C)C)ccc1Nc1ncc2c(n1)N(C1CCCC1)CC(C)(C)C(=O)N2C [Compound 89, 4-(9-cyclopentyl-5,7,7-trimethyl-6-oxo-6,7,8,9-tetrahydro-5H-pyrimido[4,5-b][1,4]diazepin-2-ylamino)-N-(3-(dimethylamino)propyl)-3-methoxybenzamide]	3.16 to 10 nM
COc1cc(C(=O)NC2CCN(C(C)=O)CC2)ccc1Nc1ncc2c(n1)N(C1CCCC1)CC(C)(C)C(=O)N2C [Compound 90, N-(1-acetylpiperidin-4-yl)-4-(9-cyclopentyl-5,7,7-trimethyl-6-oxo-6,7,8,9-tetrahydro-5H-pyrimido[4,5-b][1,4]diazepin-2-ylamino)-3-methoxybenzamide]	1 to 2.51 nM
COc1cc(C(=O)NC2CCN(S(C)(=O)=O)CC2)ccc1Nc1ncc2c(n1)N(C1CCCC1)CC(C)(C)C(=O)N2C [Compound 91, 4-(9-cyclopentyl-5,7,7-trimethyl-6-oxo-6,7,8,9-tetrahydro-5H-pyrimido[4,5-b][1,4]diazepin-2-ylamino)-3-methoxy-N-(1-(methylsulfonyl)piperidin-4-yl)benzamide]	1 to 2.51 nM
COc1cc(C(=O)NCCN(C)C)ccc1Nc1ncc2c(n1)N(C1CCCC1)CC(C)(C)C(=O)N2C [Compound 92, 4-(9-cyclopentyl-5,7,7-trimethyl-6-oxo-6,7,8,9-tetrahydro-5H-pyrimido[4,5-b][1,4]diazepin-2-ylamino)-N-(2-(dimethylamino)ethyl)-3-methoxybenzamide]	3.16 to 10 nM
COc1cc(C(=O)NCCN2CCCC2)ccc1Nc1ncc2c(n1)N(C1CCCC1)CC(C)(C)C(=O)N2C [Compound 93, 4-(9-cyclopentyl-5,7,7-trimethyl-6-oxo-6,7,8,9-tetrahydro-5H-pyrimido[4,5-b][1,4]diazepin-2-ylamino)-3-methoxy-N-(2-(pyrrolidin-1-yl)ethyl)benzamide]	3.16 to 10 nM
COc1cc(C(=O)NC2CCOCC2)ccc1Nc1ncc2c(n1)N(C1CCCC1)CC(C)(C)C(=O)N2C [Compound 94, 4-(9-cyclopentyl-5,7,7-trimethyl-6-oxo-6,7,8,9-tetrahydro-5H-pyrimido[4,5-b][1,4]diazepin-2-ylamino)-3-methoxy-N-(tetrahydro-2H-pyran-4-yl)benzamide]	1 to 2.51 nM
COc1cc(C(=O)NC2CN(C)C2)ccc1Nc1ncc2c(n1)N(C1CCCC1)CC(C)(C)C(=O)N2C [Compound 95, 4-(9-cyclopentyl-5,7,7-trimethyl-6-oxo-6,7,8,9-tetrahydro-5H-pyrimido[4,5-b][1,4]diazepin-2-ylamino)-3-methoxy-N-(1-methylazetidin-3-yl)benzamide]	1 to 2.51 nM
COc1cc(C(=O)N[C@@H]2CCN(C)C2)ccc1Nc1ncc2c(n1)N(C1CCCC1)CC(C)(C)C(=O)N2C [Compound 96, (R)-4-(9-cyclopentyl-5,7,7-trimethyl-6-oxo-6,7,8,9-tetrahydro-5H-pyrimido[4,5-b][1,4]diazepin-2-ylamino)-3-methoxy-N-(1-methylpyrrolidin-3-yl)benzamide]	3.16 to 10 nM
COc1cc(C(=O)N[C@H]2CCN(C)C2)ccc1Nc1ncc2c(n1)N(C1CCCC1)CC(C)(C)C(=O)N2C [Compound 97, (S)-4-(9-cyclopentyl-5,7,7-trimethyl-6-oxo-6,7,8,9-tetrahydro-5H-pyrimido[4,5-b][1,4]diazepin-2-ylamino)-3-methoxy-N-(1-methylpyrrolidin-3-yl)benzamide]	1 to 2.51 nM
COc1cc(C(=O)N[C@@H]2CCCN(C)C2)ccc1Nc1ncc2c(n1)N(C1CCCC1)CC(C)(C)C(=O)N2C [Compound 98, (R)-4-(9-cyclopentyl-5,7,7-trimethyl-6-oxo-6,7,8,9-tetrahydro-5H-pyrimido[4,5-b][1,4]diazepin-2-ylamino)-3-methoxy-N-(1-methylpiperidin-3-yl)benzamide]	1 to 2.51 nM
COc1cc(C(=O)N[C@H]2CCCN(C)C2)ccc1Nc1ncc2c(n1)N(C1CCCC1)CC(C)(C)C(=O)N2C [Compound 99, (S)-4-(9-cyclopentyl-5,7,7-trimethyl-6-oxo-6,7,8,9-tetrahydro-5H-pyrimido[4,5-b][1,4]diazepin-2-ylamino)-3-methoxy-N-(1-methylpiperidin-3-yl)benzamide]	< 1 nM
COc1cc(C(=O)N[C@@H]2CCCNC2)ccc1Nc1ncc2c(n1)N(C1CCCC1)CC(C)(C)C(=O)N2C [Compound 100, (R)-4-(9-cyclopentyl-5,7,7-trimethyl-6-oxo-6,7,8,9-tetrahydro-5H-pyrimido[4,5-b][1,4]diazepin-2-ylamino)-3-methoxy-N-(piperidin-3-yl)benzamide]	3.16 to 10 nM
COc1cc(C(=O)N[C@H]2CCCNC2)ccc1Nc1ncc2c(n1)N(C1CCCC1)CC(C)(C)C(=O)N2C [Compound 101, (S)-4-(9-cyclopentyl-5,7,7-trimethyl-6-oxo-6,7,8,9-tetrahydro-5H-pyrimido[4,5-b][1,4]diazepin-2-ylamino)-3-methoxy-N-(piperidin-3-yl)benzamide]	1 to 2.51 nM
CONC(=O)c1ccc(Nc2ncc3c(n2)N(C2CCCC2)CC(C)(C)C(=O)N3C)c(OC)c1 [Compound 102, 4-(9-cyclopentyl-5,7,7-trimethyl-6-oxo-6,7,8,9-tetrahydro-5H-pyrimido[4,5-b][1,4]diazepin-2-ylamino)-N,3-dimethoxybenzamide]	< 1 nM
COc1cc(C(=O)N[C@H]2CC[C@H](O)CC2)ccc1Nc1ncc2c(n1)N(C1CCCC1)CC(C)(C)C(=O)N2C [Compound 103, 4-(9-cyclopentyl-5,7,7-trimethyl-6-oxo-6,7,8,9-tetrahydro-5H-pyrimido[4,5-b][1,4]diazepin-2-ylamino)-N-((1R,4R)-4-hydroxycyclohexyl)-3-methoxybenzamide]	1 to 2.51 nM
COc1cc(C(=O)NN2CCOCC2)ccc1Nc1ncc2c(n1)N(C1CCCC1)CC(C)(C)C(=O)N2C [Compound 104, 4-(9-cyclopentyl-5,7,7-trimethyl-6-oxo-6,7,8,9-tetrahydro-5H-pyrimido[4,5-b][1,4]diazepin-2-ylamino)-3-methoxy-N-morpholinobenzamide]	< 1 nM
COc1cc(C(=O)NN2CCN(CCO)CC2)ccc1Nc1ncc2c(n1)N(C1CCCC1)CC(C)(C)C(=O)N2C [Compound 105, 4-(9-cyclopentyl-5,7,7-trimethyl-6-oxo-6,7,8,9-tetrahydro-5H-pyrimido[4,5-b][1,4]diazepin-2-ylamino)-N-(4-(2-hydroxyethyl)piperazin-1-yl)-3-methoxybenzamide]	1 to 2.51 nM
COc1cc(C(=O)NN2CCN(C)CC2)ccc1Nc1ncc2c(n1)N(C1CCCC1)CC(C)(C)C(=O)N2C [Compound 106, 4-(9-cyclopentyl-5,7,7-trimethyl-6-oxo-6,7,8,9-tetrahydro-5H-pyrimido[4,5-b][1,4]diazepin-2-ylamino)-3-methoxy-N-(4-methylpiperazin-1-yl)benzamide]	< 1 nM
COc1cc(C(N)=O)ccc1Nc1ncc2c(n1)N(C1CCCC1)CC(C)(C)C(=O)N2C [Compound 107, 4-(9-cyclopentyl-5,7,7-trimethyl-6-oxo-6,7,8,9-tetrahydro-5H-pyrimido[4,5-b][1,4]diazepin-2-ylamino)-3-methoxybenzamide]	3.16 to 10 nM
COc1cc(C(=O)N[C@@H]2CCCNC2)ccc1Nc1ncc2c(n1)N(C1CCCCC1)CC(C)(C)C(=O)N2C [Compound 110, (R)-4-(9-cyclohexyl-5,7,7-trimethyl-6-oxo-6,7,8,9-tetrahydro-5H-pyrimido[4,5-b][1,4]diazepin-2-ylamino)-3-methoxy-N-(piperidin-3-yl)benzamide]	1 to 2.51 nM
COc1cc(C(=O)N[C@H]2CCCNC2)ccc1Nc1ncc2c(n1)N(C1CCCCC1)CC(C)(C)C(=O)N2C [Compound 111, (S)-4-(9-cyclohexyl-5,7,7-trimethyl-6-oxo-6,7,8,9-tetrahydro-5H-pyrimido[4,5-b][1,4]diazepin-2-ylamino)-3-methoxy-N-(piperidin-3-yl)benzamide]	1 to 2.51 nM
COc1cc(C(=O)NN2CCN(C)CC2)ccc1Nc1ncc2c(n1)N(C1CCCCC1)CC(C)(C)C(=O)N2C [Compound 112, 4-(9-cyclohexyl-5,7,7-trimethyl-6-oxo-6,7,8,9-tetrahydro-5H-pyrimido[4,5-b][1,4]diazepin-2-ylamino)-3-methoxy-N-(4-methylpiperazin-1-yl)benzamide]	1 to 2.51 nM
CCN1CCC(NC(=O)c2ccc(Nc3ncc4c(n3)N(C3CCCCC3)CC(C)(C)C(=O)N4C)c(OC)c2)CC1 [Compound 113, 4-(9-cyclohexyl-5,7,7-trimethyl-6-oxo-6,7,8,9-tetrahydro-5H-pyrimido[4,5-b][1,4]diazepin-2-ylamino)-N-(1-ethylpiperidin-4-yl)-3-methoxybenzamide]	< 1 nM
COc1cc(C(=O)NC2CCNCC2)ccc1Nc1ncc2c(n1)N(C1CCCCC1)CC(C)(C)C(=O)N2C [Compound 116, 4-(9-cyclohexyl-5,7,7-trimethyl-6-oxo-6,7,8,9-tetrahydro-5H-pyrimido[4,5-b][1,4]diazepin-2-ylamino)-3-methoxy-N-(piperidin-4-yl)benzamide]	3.16 to 10 nM
COc1cc(C(=O)NN2CCN(C3CCCC3)CC2)ccc1Nc1ncc2c(n1)N(C1CCCCC1)CC(C)(C)C(=O)N2C [Compound 117, 4-(9-cyclohexyl-5,7,7-trimethyl-6-oxo-6,7,8,9-tetrahydro-5H-pyrimido[4,5-b][1,4]diazepin-2-ylamino)-N-(4-cyclopentylpiperazin-1-yl)-3-methoxybenzamide]	3.16 to 10 nM
